Assay results as given in PubChem BioAssay (NCI).
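In this assay, cells in 96-well plates receive the compound at five concentrations for 48 hours. Endpoints are linearly interpolated between the surrounding concentrations. TGI is the concentration that stops growth completely.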

Key:
Assay in all cases: NCI-60 cell line screen, 48 h
UACC-257 melanoma = tested on: UACC-257 melanoma
SN12C renal = tested on: SN12C renal
SR leukemia = tested on: SR leukemia
SK-OV-3 ovarian = tested on: SK-OV-3 ovarian
SK-MEL-5 melanoma = tested on: SK-MEL-5 melanoma
MCF7 breast = tested on: MCF7 breast
KM12 colon = tested on: KM12 colon
NCI-H23 lung = tested on: NCI-H23 lung
ACHN renal = tested on: ACHN renal
NCI-H226 lung = tested on: NCI-H226 lung

Measured: TGI

C=C(Cl)/C(=C\Cl)CCC(Br)C(C)C (stereo unspecified)
> 100 µM: UACC-257 melanoma | SN12C renal | SR leukemia | SK-OV-3 ovarian | SK-MEL-5 melanoma | MCF7 breast | KM12 colon | NCI-H23 lung | ACHN renal | NCI-H226 lung

CCOC(=O)c1[nH]cc(C)c1-c1ccn(-c2ccccc2)c1
72.4 µM: SR leukemia
> 100 µM: UACC-257 melanoma | SN12C renal | SK-OV-3 ovarian | MCF7 breast | KM12 colon | NCI-H23 lung | ACHN renal | NCI-H226 lung
63.9 µM: SK-MEL-5 melanoma

CC(=O)OC[C@]1(C(=O)C(O)c2ccoc2)[C@H](C)CC[C@@]23COC(=O)C2=CCC[C@@H]31 (stereo partly specified)
> 10 µM: UACC-257 melanoma | SN12C renal | SR leukemia | SK-OV-3 ovarian | SK-MEL-5 melanoma | MCF7 breast | KM12 colon | NCI-H23 lung | ACHN renal | NCI-H226 lung

CCC[C@H]1C(=O)N=C(N)N1C(=O)OCc1ccccc1
> 100 µM: UACC-257 melanoma | SN12C renal | SR leukemia | SK-MEL-5 melanoma | MCF7 breast | KM12 colon | NCI-H23 lung | ACHN renal | NCI-H226 lung

CCNC(=O)Nc1ccccn1
> 100 µM: UACC-257 melanoma | SN12C renal | SR leukemia | SK-OV-3 ovarian | SK-MEL-5 melanoma | MCF7 breast | KM12 colon | NCI-H23 lung | ACHN renal | NCI-H226 lung

O=C(CN1CCCCC1)CC(O)(C(F)(F)F)C(F)(F)F
> 100 µM: UACC-257 melanoma | SR leukemia | SK-OV-3 ovarian | SK-MEL-5 melanoma | MCF7 breast | KM12 colon | NCI-H23 lung | ACHN renal | NCI-H226 lung

C=C(C)CCC(=O)[C@](C)(O)[C@H]1[C@H](O)C[C@@]2(C)[C@@H]3CCc4c(cc(OC5OC(CO)C(O)C(O)C5O)c(O)c4C)C3(C)C(=O)C[C@]12C (stereo partly specified)
> 100 µM: UACC-257 melanoma | SN12C renal | SR leukemia | SK-OV-3 ovarian | SK-MEL-5 melanoma | MCF7 breast | KM12 colon | NCI-H23 lung | ACHN renal | NCI-H226 lung

CSCCC(NCc1c(O)ccc2c(-c3ccccc3)cc(=O)oc12)C(=O)O (stereo unspecified)
> 100 µM: UACC-257 melanoma | SN12C renal | SR leukemia | SK-OV-3 ovarian | SK-MEL-5 melanoma | MCF7 breast | KM12 colon | NCI-H23 lung | ACHN renal | NCI-H226 lung

O=c1cc(/C=C/c2ccc(O)c(O)c2)oc(/C=C/c2ccc(O)c(O)c2)c1
8.52 µM: SR leukemia
16 µM: SN12C renal | KM12 colon
30.8 µM: MCF7 breast
25.1 µM: NCI-H23 lung
21.8 µM: SK-OV-3 ovarian
17.8 µM: UACC-257 melanoma
16.1 µM: ACHN renal
28.1 µM: NCI-H226 lung
13.2 µM: SK-MEL-5 melanoma

CCSC1=CC(=O)c2nc3ccccc3c3ccnc1c23
11.4 µM: NCI-H23 lung
25.2 µM: KM12 colon
> 100 µM: SK-OV-3 ovarian
27.1 µM: NCI-H226 lung
15.5 µM: SR leukemia
4.19 µM: UACC-257 melanoma
8.43 µM: SN12C renal
4.79 µM: MCF7 breast
> 44.7 µM: ACHN renal

COc1ccc(N[C@H](CSc2ccc(C)cc2)c2ccc(F)cc2)cc1
> 100 µM: UACC-257 melanoma | SN12C renal | SR leukemia | SK-OV-3 ovarian | SK-MEL-5 melanoma | MCF7 breast | KM12 colon | NCI-H23 lung | ACHN renal
